A short description of data set [1]: Solubility Test in emollients (cosmetic solvents). It is filed as physicochemical. The procedure:
The solubility of the sunscreens obtained in example 2 and (comparative) example 3 were evaluated in various emollients commonly used in suncare and daily skincare products: C12-15 alkyl benzoate, dibutyl adipate, caprylic/capric triglyceride and ethylhexyl salicylate.

Data set [2] is described as follows: specific extinction E^11 (1% solution, 1 cm optical path). It is filed as physicochemical. The following applies: at 328 nm; solution containing 1% of the product, optical path of 1 cm. The text has this:
The efficacy of UV absorbers is characterised by the parameter E^11 (or E11), which corresponds to the extinction value measured at the maximum absorption wavelength of a solution containing 1% of the product in question, measured with an optical path of 1 cm. Such extinction is called “specific extinction”.

Setting [3] is: in Caprylic/Capric Triglyceride.

Each structure is given as a SMILES string. Some results are limits rather than exact numbers.

In the case of `CCCCC(CC)COC(=O)c1ccc(Nc2nc(Nc3ccc(-c4nc5cc(C(C)(C)CC)ccc5o4)cc3)nc(Nc3ccc(-c4nc5cc(C(C)(C)CC)ccc5o4)cc3)n2)cc1` (stereo not shown) [Example 2], the solubility in data set [1] (in C12-15 Alkyl Benzoate) is reported as 15% w/w %; in data set [1] (setting [3]) it was 15% w/w %; in data set [1] (in Dibutyl Adipate) it was 20% w/w %; in data set [1] (in Ethylhexyl Salicylate) it was 25% w/w %. Also, in data set [2], the “E^11 extinction” value was determined as 1431.

With `CCCCC(CC)COC(=O)c1ccc(Nc2nc(Nc3ccc(-c4nc5cc(C(C)(C)C)ccc5o4)cc3)nc(Nc3ccc(-c4nc5cc(C(C)(C)C)ccc5o4)cc3)n2)cc1` (stereo not shown) [Example 3], the solubility is given as 5% w/w % in data set [1] (in C12-15 Alkyl Benzoate), less than 5% w/w % in data set [1] (setting [3]), 5% w/w % in data set [1] (in Dibutyl Adipate) and 10% w/w % in data set [1] (in Ethylhexyl Salicylate). Further, the “E^11 extinction” value in data set [2] amounted to 1395.
